The values that follow come from patent publication US11147746B2, “Hydrophobic dental surfaces” (priority 2016, dated 2021).

The nature of data set [1]: Water contact angle (sessile drop) on peptide-coated dentin. Format: physicochemical. The text has this:
The water contact angle (WCA) may be measured using the sessile drop method with deionized water as probe liquid. The sessile drop is the most common method for optical measurement of the contact angle using drop shape analysis. Measurement of the contact angle of a sessile drop that lies on the surface of a solid may be made with a contact angle goniometer, which allows measuring the contact angle visually by capturing the profile of a pure liquid on a solid substrate. The angle formed between the liquid-solid interface and the liquid-vapor interface is determined to be the water contact angle. A droplet is deposited by a syringe which is positioned above the sample surface, and a high-resolution camera may be used to capture the image from the profile or side view. The image may be analyzed using image analysis software. The measurement may be referred to as a static contact angle measurement. The change in WCA, or ΔWCA, is the difference between the average water contact angles after predetermined intervals of time, for example, 1 s and 21 s of drop contact with the tested surface, or the difference between the initial and the final water contact angles.
Water contact angles described according to the disclosure are with reference to the sessile drop technique, using a drop volume or 2-5 μL, for example, 3 μL. Similar or different values of WCA and ΔWCA for the same tested surfaces may be obtained using other methods to determine wettability of surfaces, such as the Wilhelmy method, or when using different drop volumes. In some examples, one or more of these or other techniques may be used to determine the WCA or ΔWCA.
The wettability of coated etched dentin with these peptides was evaluated in different conditions, for example, single or double GL13K coatings, rinsing with water or alcohol after coating, after deproteinization, with blow drying, alcohol drying, combinations of the two, or progressive alcohol drying after dentin etching, and using the same buffer solutions with or without peptides. Dynamic water contact angles (WCA) of water drops placed on the treated dentin surfaces were measured.
A drop of 3 μL of deionized water was dispensed using a contact angle meter (DCM-E1, Kyowa, Japan) on top of the dentin surfaces with and without treatments. Images of the drop were automatically taken with the camera of the contact angle meter every second for 21 s; i.e., until the shape of the drop on the surface was stable for all surfaces analyzed. The shape of the profile of the drop on the surface was then automatically identified by the equipment's software (Famas, Kyowa, Japan) and the contact angle between the liquid-solid interface and the liquid-vapor interface was determined. The reported WCA are average values at the end of the test; i.e., after 21 s the drop was in contact with the tested surface for at least 3 different drops in three different surfaces for each dentin treatment. ΔWCA is the difference between the average water contact angles after 1 s and 21 s of drop contact with the tested surface; i.e., the difference between the initial and the final water contact angles.
A de-proteinization step was used to remove demineralized/exposed collagen. […] A super-hydrophobic GL13K-coated dentin surface with water contact angles up to 100 was produced.

Data set [2] in a line: Saliva (enzyme) challenge of coated dentin, then WCA and acidic dye penetration. Further details: species or system bovine. To be noted: saliva at 37° C. for three consecutive days. The procedure:
Peptide-coated dentin samples were challenged with saliva, which includes enzymes. Bovine dentin slabs, prepared as discussed above with reference to EXAMPLE 2, were incubated in freshly collected and filtered saliva (thus exposed to biodegrading enzymes) at 37° C. for three consecutive days. The WCA was subsequently measured, and the samples were further immersed in acidic blue dye for 4 h. GL13K-coated dentin retained its hydrophobic character after the challenge, with average WCA=105°. FIG. 7A is a photograph showing a transverse cross-section of a tooth slab including enamel and dentin and treated with a buffer solution, exposed to saliva for three days, and subjected to an acidic blue dye.

The mark [3] stands for this setting: dentin prepared with the deproteinized method, then coated (samples S12, S14, S16).
Setting [4] is: progressive dehydration protocol (increasing ethanol concentrations).

No end group written: not given here.

GKIIKLKASLKLL [GL13K]: the WCA in data set [1] (setting [3]) was 85 °; in data set [1] (setting [4]) it was 120 °; in data set [1] (single coating on etched dentin, alcohol rinse and blow drying), 55 °; in data set [1] (single coating on etched dentin, water rinse and blow drying), 70 °; in data set [1] (two coating treatments, rinsing with alcohol) it was 100 °. Also, the water contact angles entry in data set [1] (etching, wet de-proteinization with 5% NaOCl, coating without alcohol dehydration (Example 8)) was “up to 100”. For the same sequence, the ΔWCA in data set [1] (setting [4]) amounted to 4 °. Further, in data set [1] (with respect to the etched dentin), the “variation of water contact angle over time” value is given as “significantly reduced”. Moreover, the “average WCA after saliva challenge” value in data set [2] was 105 °.

As for VRLIVAVRIWRR [Sample 1018], the WCA in data set [1] (setting [3]) was found to be 84 °.
